Where two headings read alike, the source gives them in different places.
What was measured:
DCAF7-TFEB interaction = target: T1, DCAF7-TFEB interaction (Homo sapiens, UniProt P61962); assay: Proximity ligation assay of TFEB and DCAF7 in BEAS-2B cells; assay type: cell-based
T1 construct: endogenous in cells; host or cells: BEAS-2B

DRD1 = target: T2, DRD1 (Homo sapiens, UniProt P21728); assay: Safety47 cAMP DRD1; assay type: cell-based; conditions: for Emax: read-out: Max Response; for EC50: read-out: RC50 (EC50); for IC50: read-out: RC50 (IC50)
T2 construct: purchased Eurofins Panlab Safety47 Safety Scan

DAT = target: T3, DAT (Homo sapiens, UniProt Q01959); assay: Safety47 Transporter DAT; assay type: cell-based; conditions: Blocker; for Emax: read-out: Max Response; for IC50: read-out: RC50 (IC50)
T3 construct: purchased Eurofins Panlab (Safety47 Safety Scan, contract panel)

CNR2 = target: T4, CNR2 (Homo sapiens, UniProt P34972); assay: Safety47 cAMP CNR2; assay type: cell-based; conditions: for Emax: read-out: Max Response; for EC50: read-out: RC50 (EC50); for IC50: read-out: RC50 (IC50)
T4 construct: purchased Eurofins Panlab Safety47 Safety Scan

DRD2S = target: T5, DRD2S (Homo sapiens, UniProt P14416); assay: Safety47 cAMP DRD2S; assay type: cell-based; conditions: for Emax: read-out: Max Response; for EC50: read-out: RC50 (EC50); for IC50: read-out: RC50 (IC50)
T5 construct: purchased Eurofins Panlab Safety47 Safety Scan

AR = target: T6, AR (Homo sapiens, UniProt P10275); assay: Safety47 NHR Nuclear Translocation AR; assay type: cell-based; conditions: for Emax: read-out: Max Response; for EC50: read-out: RC50 (EC50); for IC50: read-out: RC50 (IC50)
T6 construct: purchased Eurofins Panlab (Safety47 Safety Scan, contract panel)
T6 sequence (P10275 1-920): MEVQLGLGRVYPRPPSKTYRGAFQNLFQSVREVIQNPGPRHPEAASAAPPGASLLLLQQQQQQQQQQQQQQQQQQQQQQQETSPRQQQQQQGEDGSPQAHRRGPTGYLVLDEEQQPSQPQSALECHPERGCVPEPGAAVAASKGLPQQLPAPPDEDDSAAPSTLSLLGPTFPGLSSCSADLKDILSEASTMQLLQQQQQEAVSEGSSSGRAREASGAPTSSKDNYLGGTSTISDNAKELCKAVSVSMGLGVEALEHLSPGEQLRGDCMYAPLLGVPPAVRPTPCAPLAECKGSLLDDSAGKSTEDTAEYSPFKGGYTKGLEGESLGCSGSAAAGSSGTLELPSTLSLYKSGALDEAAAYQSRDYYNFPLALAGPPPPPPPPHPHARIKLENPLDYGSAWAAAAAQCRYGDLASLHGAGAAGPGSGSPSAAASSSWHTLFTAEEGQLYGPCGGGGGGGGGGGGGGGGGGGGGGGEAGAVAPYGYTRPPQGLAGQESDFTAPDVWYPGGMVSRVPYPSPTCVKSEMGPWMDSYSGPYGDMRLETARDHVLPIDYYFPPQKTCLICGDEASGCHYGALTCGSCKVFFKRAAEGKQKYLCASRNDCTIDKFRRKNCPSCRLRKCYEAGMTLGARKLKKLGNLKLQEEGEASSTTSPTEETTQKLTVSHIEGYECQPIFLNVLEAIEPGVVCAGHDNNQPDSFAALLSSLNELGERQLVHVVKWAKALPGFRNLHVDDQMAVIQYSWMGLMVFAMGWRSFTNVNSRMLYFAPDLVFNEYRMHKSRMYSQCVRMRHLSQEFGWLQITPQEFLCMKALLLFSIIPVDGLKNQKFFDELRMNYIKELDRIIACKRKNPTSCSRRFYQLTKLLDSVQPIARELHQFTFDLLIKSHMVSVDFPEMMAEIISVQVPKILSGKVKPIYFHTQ

CHRM3 = target: T7, CHRM3 (Homo sapiens, UniProt P20309); assay: Safety47 Calcium Flux CHRM3; assay type: cell-based; conditions: for Emax: read-out: Max Response; for EC50: read-out: RC50 (EC50); for IC50: read-out: RC50 (IC50)
T7 construct: purchased Eurofins Panlab Safety47 Safety Scan

EDNRA = target: T8, EDNRA (Homo sapiens, UniProt P25101); assay: Safety47 Calcium Flux EDNRA; assay type: cell-based; conditions: for Emax: read-out: Max Response; for EC50: read-out: RC50 (EC50); for IC50: read-out: RC50 (IC50)
T8 construct: purchased Eurofins Panlab Safety47 Safety Scan
T8 sequence (P25101 21-427): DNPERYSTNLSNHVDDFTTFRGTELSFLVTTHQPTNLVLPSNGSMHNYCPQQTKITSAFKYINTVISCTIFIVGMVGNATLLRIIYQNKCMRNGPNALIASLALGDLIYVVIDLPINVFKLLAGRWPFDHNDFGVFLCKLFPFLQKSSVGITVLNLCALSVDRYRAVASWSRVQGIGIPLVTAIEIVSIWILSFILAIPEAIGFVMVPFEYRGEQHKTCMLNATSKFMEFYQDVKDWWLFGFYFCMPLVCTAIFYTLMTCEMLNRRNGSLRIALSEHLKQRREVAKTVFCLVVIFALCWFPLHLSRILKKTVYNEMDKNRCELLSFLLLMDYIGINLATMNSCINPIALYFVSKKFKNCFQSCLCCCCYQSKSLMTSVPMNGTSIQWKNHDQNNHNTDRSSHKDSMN

ROCK1 = target: T9, ROCK1 (Homo sapiens, UniProt Q13464); assay: Safety47 Kinase Binding ROCK1; conditions: Kinases, Inhibitor; for Emax: read-out: Max Response; for IC50: read-out: RC50 (IC50)
T9 construct: purchased Eurofins Panlab (Safety47 Safety Scan, contract panel)

ADRB2 = target: T10, ADRB2 (Homo sapiens, UniProt P07550); assay: Safety47 cAMP ADRB2; assay type: cell-based; conditions: for Emax: read-out: Max Response; for EC50: read-out: RC50 (EC50); for IC50: read-out: RC50 (IC50)
T10 construct: purchased Eurofins Panlab Safety47 Safety Scan

COX2 = target: T11, COX2 (Homo sapiens, UniProt P35354); assay: Safety47 Enzymatic COX2; assay type: biochemical; conditions: Inhibitor; for Emax: read-out: Max Response; for IC50: read-out: RC50 (IC50)
T11 construct: purchased Eurofins Panlab (Safety47 Safety Scan, contract panel)
T11 sequence (P35354 18-604): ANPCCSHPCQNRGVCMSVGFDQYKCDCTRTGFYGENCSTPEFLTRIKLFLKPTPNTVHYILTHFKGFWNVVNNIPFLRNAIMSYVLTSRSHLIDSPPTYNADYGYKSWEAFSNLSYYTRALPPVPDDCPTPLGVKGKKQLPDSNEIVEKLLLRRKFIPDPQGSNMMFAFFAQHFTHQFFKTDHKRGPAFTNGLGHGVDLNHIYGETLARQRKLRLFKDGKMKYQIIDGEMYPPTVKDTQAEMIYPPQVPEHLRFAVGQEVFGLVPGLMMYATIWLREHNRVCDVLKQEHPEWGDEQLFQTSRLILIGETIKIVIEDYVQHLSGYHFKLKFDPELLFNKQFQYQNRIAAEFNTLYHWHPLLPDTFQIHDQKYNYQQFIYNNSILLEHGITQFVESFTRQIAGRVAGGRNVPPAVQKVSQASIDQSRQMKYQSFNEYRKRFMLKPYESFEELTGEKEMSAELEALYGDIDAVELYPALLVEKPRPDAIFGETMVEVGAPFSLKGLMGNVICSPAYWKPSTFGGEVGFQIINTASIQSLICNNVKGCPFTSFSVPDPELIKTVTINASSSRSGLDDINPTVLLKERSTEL

T4 sequence (P34972 whole entry): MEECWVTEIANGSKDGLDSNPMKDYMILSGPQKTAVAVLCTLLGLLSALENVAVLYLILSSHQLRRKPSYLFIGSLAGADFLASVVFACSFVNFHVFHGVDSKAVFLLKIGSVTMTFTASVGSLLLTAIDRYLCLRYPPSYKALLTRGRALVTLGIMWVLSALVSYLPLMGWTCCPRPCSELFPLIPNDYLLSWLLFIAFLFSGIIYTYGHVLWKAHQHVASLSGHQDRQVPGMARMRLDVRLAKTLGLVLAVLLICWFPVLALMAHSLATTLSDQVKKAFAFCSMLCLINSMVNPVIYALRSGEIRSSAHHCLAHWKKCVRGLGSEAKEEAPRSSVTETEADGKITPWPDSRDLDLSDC
T5 sequence (P14416 1-414 isoform P14416-2): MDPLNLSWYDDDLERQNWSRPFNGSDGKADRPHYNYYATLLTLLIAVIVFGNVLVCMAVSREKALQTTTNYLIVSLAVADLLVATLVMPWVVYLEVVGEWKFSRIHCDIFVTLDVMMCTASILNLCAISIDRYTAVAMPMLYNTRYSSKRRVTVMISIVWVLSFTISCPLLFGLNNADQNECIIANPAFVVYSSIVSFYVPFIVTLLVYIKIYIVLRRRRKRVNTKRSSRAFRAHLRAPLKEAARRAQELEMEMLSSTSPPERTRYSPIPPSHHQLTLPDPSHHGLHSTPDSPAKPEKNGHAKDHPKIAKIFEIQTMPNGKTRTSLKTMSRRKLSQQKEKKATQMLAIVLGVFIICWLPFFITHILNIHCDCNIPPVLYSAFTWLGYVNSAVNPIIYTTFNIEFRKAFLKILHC
T10 sequence (P07550 whole entry): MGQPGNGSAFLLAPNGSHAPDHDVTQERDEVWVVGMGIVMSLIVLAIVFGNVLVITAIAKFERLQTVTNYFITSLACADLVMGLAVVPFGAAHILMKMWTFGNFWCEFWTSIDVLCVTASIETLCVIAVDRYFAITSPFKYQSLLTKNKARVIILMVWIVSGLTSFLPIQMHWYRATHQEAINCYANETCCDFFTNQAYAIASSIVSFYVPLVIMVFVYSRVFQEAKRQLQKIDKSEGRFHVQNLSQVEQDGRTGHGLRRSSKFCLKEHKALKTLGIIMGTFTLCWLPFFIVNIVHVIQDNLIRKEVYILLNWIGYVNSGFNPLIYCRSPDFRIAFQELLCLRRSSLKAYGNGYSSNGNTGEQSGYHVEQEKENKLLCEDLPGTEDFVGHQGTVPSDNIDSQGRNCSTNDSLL
T3 sequence (Q01959 whole entry, species assumed): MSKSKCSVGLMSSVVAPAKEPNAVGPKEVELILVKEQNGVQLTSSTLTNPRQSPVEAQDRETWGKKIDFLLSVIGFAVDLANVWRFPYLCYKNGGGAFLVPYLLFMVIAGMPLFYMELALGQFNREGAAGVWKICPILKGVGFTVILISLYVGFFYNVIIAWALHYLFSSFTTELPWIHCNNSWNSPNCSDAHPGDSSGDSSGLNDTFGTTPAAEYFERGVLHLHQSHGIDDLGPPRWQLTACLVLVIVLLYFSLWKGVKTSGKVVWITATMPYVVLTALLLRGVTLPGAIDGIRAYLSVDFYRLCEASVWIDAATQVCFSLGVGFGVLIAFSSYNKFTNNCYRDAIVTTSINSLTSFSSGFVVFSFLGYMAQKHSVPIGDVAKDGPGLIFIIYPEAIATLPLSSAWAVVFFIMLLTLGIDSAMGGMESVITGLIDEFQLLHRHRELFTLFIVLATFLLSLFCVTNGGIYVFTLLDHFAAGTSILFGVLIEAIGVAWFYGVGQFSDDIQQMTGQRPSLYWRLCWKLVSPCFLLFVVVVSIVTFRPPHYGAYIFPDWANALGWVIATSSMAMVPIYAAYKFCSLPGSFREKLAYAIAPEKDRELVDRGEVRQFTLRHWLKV
T2 sequence (P21728 whole entry): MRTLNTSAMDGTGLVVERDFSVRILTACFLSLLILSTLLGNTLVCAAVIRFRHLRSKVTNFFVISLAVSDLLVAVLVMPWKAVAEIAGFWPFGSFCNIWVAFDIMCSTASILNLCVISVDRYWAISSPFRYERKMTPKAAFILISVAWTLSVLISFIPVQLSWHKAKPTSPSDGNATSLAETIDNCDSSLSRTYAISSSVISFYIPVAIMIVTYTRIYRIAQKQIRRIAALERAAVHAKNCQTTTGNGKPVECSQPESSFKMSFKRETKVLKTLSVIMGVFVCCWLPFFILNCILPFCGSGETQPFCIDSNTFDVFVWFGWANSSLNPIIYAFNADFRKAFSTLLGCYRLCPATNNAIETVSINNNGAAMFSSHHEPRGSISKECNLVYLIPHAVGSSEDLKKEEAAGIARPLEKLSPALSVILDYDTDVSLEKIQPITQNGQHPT
T7 sequence (P20309 whole entry): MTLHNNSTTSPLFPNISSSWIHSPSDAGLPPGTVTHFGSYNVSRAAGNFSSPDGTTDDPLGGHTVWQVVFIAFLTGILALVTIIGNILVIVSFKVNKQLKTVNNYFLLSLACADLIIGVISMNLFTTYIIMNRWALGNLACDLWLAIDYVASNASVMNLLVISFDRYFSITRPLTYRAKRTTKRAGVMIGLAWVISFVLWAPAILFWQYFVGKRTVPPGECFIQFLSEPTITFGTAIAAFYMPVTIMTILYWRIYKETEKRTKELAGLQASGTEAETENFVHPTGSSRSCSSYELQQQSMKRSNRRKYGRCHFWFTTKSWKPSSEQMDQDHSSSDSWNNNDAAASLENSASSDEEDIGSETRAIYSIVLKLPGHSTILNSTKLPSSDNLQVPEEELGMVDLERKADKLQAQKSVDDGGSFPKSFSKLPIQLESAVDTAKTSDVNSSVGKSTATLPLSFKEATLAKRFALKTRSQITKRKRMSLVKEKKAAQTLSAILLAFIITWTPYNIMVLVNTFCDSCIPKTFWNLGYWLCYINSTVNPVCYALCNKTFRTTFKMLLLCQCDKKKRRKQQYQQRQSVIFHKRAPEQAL
T9 sequence (Q13464 whole entry, species assumed): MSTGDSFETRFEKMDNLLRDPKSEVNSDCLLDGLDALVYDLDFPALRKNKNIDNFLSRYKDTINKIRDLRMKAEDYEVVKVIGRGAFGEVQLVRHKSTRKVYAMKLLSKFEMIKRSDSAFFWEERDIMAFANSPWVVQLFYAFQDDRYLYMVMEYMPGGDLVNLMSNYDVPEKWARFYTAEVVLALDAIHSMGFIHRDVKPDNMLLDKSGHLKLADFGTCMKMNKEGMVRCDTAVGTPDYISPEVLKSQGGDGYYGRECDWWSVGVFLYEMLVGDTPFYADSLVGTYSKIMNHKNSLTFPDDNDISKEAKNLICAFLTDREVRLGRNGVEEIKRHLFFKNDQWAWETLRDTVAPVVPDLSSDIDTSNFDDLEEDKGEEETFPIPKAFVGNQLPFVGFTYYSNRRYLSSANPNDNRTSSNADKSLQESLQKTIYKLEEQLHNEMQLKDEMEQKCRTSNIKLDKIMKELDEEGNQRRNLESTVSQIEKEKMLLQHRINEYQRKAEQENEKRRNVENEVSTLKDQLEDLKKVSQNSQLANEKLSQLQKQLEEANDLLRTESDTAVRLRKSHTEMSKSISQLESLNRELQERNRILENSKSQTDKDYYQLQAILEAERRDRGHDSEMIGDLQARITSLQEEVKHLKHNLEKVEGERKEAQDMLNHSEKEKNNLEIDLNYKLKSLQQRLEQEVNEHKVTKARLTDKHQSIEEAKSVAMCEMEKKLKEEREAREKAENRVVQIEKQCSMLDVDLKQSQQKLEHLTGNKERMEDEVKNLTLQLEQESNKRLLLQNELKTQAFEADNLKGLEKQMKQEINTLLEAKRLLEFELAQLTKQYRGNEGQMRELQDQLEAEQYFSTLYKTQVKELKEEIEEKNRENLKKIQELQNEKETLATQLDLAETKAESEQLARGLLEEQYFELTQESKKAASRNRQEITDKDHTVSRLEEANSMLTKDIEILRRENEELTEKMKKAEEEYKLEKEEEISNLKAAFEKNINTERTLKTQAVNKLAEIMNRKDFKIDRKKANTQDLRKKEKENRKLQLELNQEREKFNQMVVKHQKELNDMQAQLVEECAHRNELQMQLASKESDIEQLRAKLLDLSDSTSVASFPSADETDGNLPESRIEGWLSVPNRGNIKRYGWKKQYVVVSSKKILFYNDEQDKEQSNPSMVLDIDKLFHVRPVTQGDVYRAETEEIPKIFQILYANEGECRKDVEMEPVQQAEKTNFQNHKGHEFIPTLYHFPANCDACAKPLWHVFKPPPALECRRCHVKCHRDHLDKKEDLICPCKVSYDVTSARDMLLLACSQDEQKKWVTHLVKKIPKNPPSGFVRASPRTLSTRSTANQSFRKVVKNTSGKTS
T1 sequence (P61962 whole entry): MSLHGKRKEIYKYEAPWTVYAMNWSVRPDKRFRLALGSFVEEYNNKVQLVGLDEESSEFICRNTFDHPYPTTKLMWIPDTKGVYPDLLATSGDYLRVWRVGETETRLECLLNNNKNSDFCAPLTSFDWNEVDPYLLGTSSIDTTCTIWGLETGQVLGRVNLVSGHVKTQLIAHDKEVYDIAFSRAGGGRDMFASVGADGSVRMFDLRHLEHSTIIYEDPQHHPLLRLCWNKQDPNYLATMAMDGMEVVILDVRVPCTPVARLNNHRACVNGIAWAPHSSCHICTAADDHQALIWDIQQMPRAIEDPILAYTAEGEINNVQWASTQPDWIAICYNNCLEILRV

Row | Structure (SMILES) | Nuclear protein-protein interaction between DCAF7 and TFEB (PLA) (DCAF7-TFEB interaction) | Emax (DRD1; Agonist) [%] | EC50 (DRD1; Agonist) [µM] | Curve Bottom (DRD1; Antagonist) | Curve Top (DRD1; Antagonist) | Hill (DRD1; Antagonist) | Emax (DRD1; Antagonist) [%] | IC50 (DRD1; Antagonist) [µM] | Emax (DAT) [%] | IC50 (DAT) [µM] | Emax (CNR2; Agonist) [%] | EC50 (CNR2; Agonist) [µM] | Emax (CNR2; Antagonist) [%] | IC50 (CNR2; Antagonist) [µM] | Emax (DRD2S; Agonist) [%] | EC50 (DRD2S; Agonist) [µM] | Emax (DRD2S; Antagonist) [%] | IC50 (DRD2S; Antagonist) [µM] | Emax (AR; Agonist) [%] | EC50 (AR; Agonist) [µM] | other results
1 | Cl.c1ccc2c(Nc3ccc4[nH]ccc4c3)nc(-c3ccncc3)nc2c1 [BC18630, N-1H-indol-5-yl-2-pyridin-4-ylquinazolin-4-amine hydrochloride] | largely reduced | 0 | > 10 | 0 | 100 | 1.45 | 55.1 | 8.45 | 37 | > 10 | 27.8 | > 10 | 0 | > 10 | 0.87 | > 10 | 24.3 | > 10 | 0 | > 10 | Emax (AR; Antagonist): 15.6%; IC50 (AR; Antagonist): > 10 µM; Emax (CHRM3; Agonist): 0%; EC50 (CHRM3; Agonist): > 10 µM; Emax (CHRM3; Antagonist): 13.7%; IC50 (CHRM3; Antagonist): > 10 µM; Emax (EDNRA; Agonist): 0%; EC50 (EDNRA; Agonist): > 10 µM; Emax (EDNRA; Antagonist): 3.72%; IC50 (EDNRA; Antagonist): > 10 µM; Emax (ROCK1): 20.8%; IC50 (ROCK1): > 10 µM; Emax (ADRB2; Agonist): 0%; EC50 (ADRB2; Agonist): > 10 µM; Emax (ADRB2; Antagonist): 37.3%; IC50 (ADRB2; Antagonist): > 10 µM; Emax (COX2): 8.53%; IC50 (COX2): > 10 µM
2 | Cl.Fc1cc(Nc2nc(-c3ccncc3)nc3ncccc23)cc2cc[nH]c12 [BC18813, N-(7-fluoro-1H-indol-5-yl)-2-pyridin-4-ylpyrido[2,3-d]pyrimidin-4-amine hydrochloride] | largely reduced | 0 | > 10 | 0 | 100 | 1.19 | 50.1 | 9.45 | 16.8 | > 10 | 63.6 | 4.59 | 0 | > 10 | 13.5 | > 10 | 5.93 | > 10 | 0 | > 10 | Curve Bottom (CNR2; Agonist): 0; Curve Top (CNR2; Agonist): 100; Hill (CNR2; Agonist): 1.05; IC50 (AR; Antagonist): > 10 µM; Emax (CHRM3; Agonist): 0.56%; EC50 (CHRM3; Agonist): > 10 µM; Emax (CHRM3; Antagonist): 16.6%; IC50 (CHRM3; Antagonist): > 10 µM; Emax (EDNRA; Agonist): 5.5%; EC50 (EDNRA; Agonist): > 10 µM; Emax (EDNRA; Antagonist): 2.32%; IC50 (EDNRA; Antagonist): > 10 µM; Emax (ROCK1): 22.8%; IC50 (ROCK1): > 10 µM; Emax (ADRB2; Agonist): 0%; EC50 (ADRB2; Agonist): > 10 µM; Emax (ADRB2; Antagonist): 41.9%; IC50 (ADRB2; Antagonist): > 10 µM; Emax (COX2): 17.9%; IC50 (COX2): > 10 µM
